ChEMBL document CHEMBL1145505, “Bisphosphonates target multiple sites in both cis- and trans-prenyltransferases” (Proc Natl Acad Sci U S A, 2007)
Where “and” joins values, the source holds several entries; their conditions need not be identical. Equal entries are not always repeated.

Tests used:
[1] = Inhibition of Sulfolobus solfataricus HPPS; design: species or system Saccharolobus solfataricus
[2] = Inhibition of Escherichia coli OPPS
[3] = Inhibition of Escherichia coli UPPS

Compound | IC50 [1] | IC50 [2] | IC50 [3]
O=P(O)(O)C(O)(Cc1cccc(-c2cccc(NS(=O)(=O)c3ccc4ccccc4c3)c2)c1)P(=O)(O)O | 420 nM | 5400 nM | 
O=P(O)(O)C(O)(Cc1cccc(-c2ccc(-c3ccccc3)cc2)c1)P(=O)(O)O | 2700 nM | 870000 nM | 
O=P(O)(O)C(O)(Cc1cccnc1)P(=O)(O)O [RISEDRONIC ACID] | 90 nM | 38 nM | 660 µM
O=P([O-])(O)C(C[n+]1cccc(-c2cccc3c2oc2ccccc23)c1)P(=O)(O)O (configuration not stated) |  |  | 34 µM
O=P(O)(O)C(O)(CCc1cccc(-c2ccc(-c3ccccc3)cc2)c1)P(=O)(O)O |  |  | 10 µM
O=P(O)(O)C(CCCc1ccc(-c2ccccc2)cc1)P(=O)(O)O |  |  | 69 µM
O=P(O)(O)C1(P(=O)(O)O)CC(c2ccc(Cl)c(Cl)c2)=NO1 |  |  | 87 µM
O=P([O-])(O)C(C[n+]1cccc(-c2cccc(-c3ccccc3)c2)c1)P(=O)(O)O (configuration not stated) |  |  | 68 µM and 21 µM
O=P(O)(O)C(O)(Cc1ccc(-c2cccc(-c3ccccc3)c2)cc1)P(=O)(O)O |  |  | 1 µM
O=P(O)(O)C(O)(CCc1cccc(-c2cccc(-c3ccccc3)c2)c1)P(=O)(O)O |  |  | 5.5 µM
O=P(O)(O)C(O)(Cc1ccc(-c2ccc(-c3ccccc3)cc2)cc1)P(=O)(O)O |  |  | 2 µM
O=P(O)(O)C(O)(Cc1cnc2ccccn12)P(=O)(O)O [MINODRONIC ACID] | 50 nM | 2100 nM | 
O=P(O)(O)C(O)(CCc1cccc(-c2ccccc2-c2ccccc2)c1)P(=O)(O)O |  |  | 3.1 µM
O=P([O-])(O)C(O)(C[n+]1ccc(-c2cccc3c2oc2ccccc23)cc1)P(=O)(O)O (configuration not stated) |  |  | 13 µM
CC(C)=CCC/C(C)=C/Cc1ccc[n+](CC(P(=O)([O-])O)P(=O)(O)O)c1 (configuration not stated) |  |  | 89 µM
O=P(O)(O)C(O)(Cc1cccc(-c2ccccc2)c1)P(=O)(O)O |  |  | 6.8 µM
O=P(O)(O)C(O)(CCc1ccc(-c2cccc3c2oc2ccccc23)cc1)P(=O)(O)O |  |  | 12 µM
O=P(O)(O)C(O)(Cc1cccc(-c2cccc(-c3ccccc3)c2)c1)P(=O)(O)O | 460 nM | 430 nM | 
O=P(O)(O)C(O)(COc1cccc(-c2cccc(-c3ccccc3)c2)c1)P(=O)(O)O | 360000 nM | 75 nM | 
O=P(O)(O)C(O)(c1cccc(-c2cccc(-c3ccccc3)c2)c1)P(=O)(O)O |  |  | 1.8 µM
O=P([O-])(O)C(C[n+]1cccc(-c2ccc(-c3ccccc3)cc2)c1)P(=O)(O)O (configuration not stated) |  |  | 35 µM
O=P(O)(O)C(O)(Cc1cccc(-c2cccc3c2oc2ccccc23)c1)P(=O)(O)O | 1200 nM | 32000 nM | 
O=P([O-])(O)C(O)(C[n+]1cccc(-c2ccccc2)c1)P(=O)(O)O (configuration not stated) |  |  | 48 µM
O=P([O-])(O)C(O)(C[n+]1cccc(F)c1)P(=O)(O)O (configuration not stated) |  |  | 490 µM
O=P([O-])(O)C(C[n+]1ccc(-c2ccc(-c3ccccc3)cc2)cc1)P(=O)(O)O (configuration not stated) |  |  | 28 µM
O=P(O)(O)C(O)(Cc1ccccc1)P(=O)(O)O |  |  | 200 µM
O=P([O-])(O)C(C[n+]1cccc(-c2ccccc2-c2ccccc2)c1)P(=O)(O)O (configuration not stated) |  |  | 120 µM
O=P(O)(O)C(O)(Cn1ccnc1)P(=O)(O)O [ZOLEDRONIC ACID] | 90 nM | 38 nM | 
